Experimental data: PubChem BioAssay (NCI)
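48-hour exposure; five concentrations; linearly interpolated endpoints. GI50 marks 50% less growth. The concentration for full growth arrest is given as TGI.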

How the values were obtained:
Assay in all cases: NCI anticancer screen, dose series, 48 h
SF-295 CNS = system: SF-295 CNS
SNB-19 CNS = system: SNB-19 CNS
K-562 leukemia = system: K-562 leukemia
U251 CNS = system: U251 CNS
CCRF-CEM leukemia = system: CCRF-CEM leukemia
EKVX NSCLC = system: EKVX NSCLC
OVCAR-3 ovarian = system: OVCAR-3 ovarian
SF-539 CNS = system: SF-539 CNS
NCI-H23 lung = system: NCI-H23 lung
SW-620 colon = system: SW-620 colon

Row | SMILES | GI50 (SF-295 CNS) [µM] | TGI (SF-295 CNS) [µM] | GI50 (SNB-19 CNS) [µM] | TGI (SNB-19 CNS) [µM] | GI50 (K-562 leukemia) [µM] | TGI (K-562 leukemia) [µM] | GI50 (U251 CNS) [µM] | TGI (U251 CNS) [µM] | GI50 (CCRF-CEM leukemia) [µM] | TGI (CCRF-CEM leukemia) [µM] | GI50 (EKVX NSCLC) [µM] | TGI (EKVX NSCLC) [µM] | GI50 (OVCAR-3 ovarian) [µM] | TGI (OVCAR-3 ovarian) [µM] | GI50 (SF-539 CNS) [µM] | TGI (SF-539 CNS) [µM] | GI50 (NCI-H23 lung) [µM] | TGI (NCI-H23 lung) [µM] | GI50 (SW-620 colon) [µM] | TGI (SW-620 colon) [µM]
1 | CCC[CH2][Pb]([Cl])([CH2]CCC)[CH2]CCC | 0.13 | 0.26 | 0.188 | 0.33 | 0.0277 | 0.931 | 0.0161 | 0.0304 | 0.0553 | 1.15 | 0.066 | 0.218 | 0.0204 | 0.0499 | 0.0338 | 0.0892 | 0.0298 | 0.116 | 0.0185 | 0.0345
2 | Nc1c(F)cc(-c2nc3cc(F)ccc3[se]2)cc1Br | 12.7 | > 100 | 27.8 | > 100 | 49.2 | > 100 | 12 | 70.5 | > 100 | > 100 | 0.209 | > 100 | 0.123 | > 100 | 11.4 | 32.4 | 0.0414 | 20 | > 54.5 | > 100
3 | CN(C)CCNC(=O)NC[C@H]1CC[C@@H]2[C@H](O1)c1cc(C(F)(F)F)ccc1N[C@H]2c1ccccc1 | 0.194 | 5.73 | 0.624 | > 100 | 0.0757 | 14.8 | 0.0537 | 1.69 | 0.137 | 3.85 | 11.1 | > 100 | 0.264 | 10.3 | 0.187 | 8.31 | 0.495 | > 48.3 | 0.0765 | 17.1
4 | CN(C)c1ccc2nc(CC(O)(C(F)(F)F)C(F)(F)F)ccc2c1 |  | > 10 |  | > 10 |  | > 10 |  | > 10 |  | > 10 |  | > 10 |  | > 10 |  | > 10 |  | > 10 |  | > 10
5 | COc1ccc(OC)c(/C=C/c2nc(SCc3ccccc3)n(-c3ccc(Cl)cc3)n2)c1 | 3.5 | 36.6 | 14.3 | > 100 | 4.23 | > 100 | 5.35 | > 100 | 4.11 | > 100 | 9.89 | > 100 | 3.54 | 12 | 4.25 | > 100 | 6.85 | > 100 | 5.05 | > 100
6 | COc1ccc2c(c1)C(=O)c1c-2c(Nc2cccc(C(C)=O)c2)nc2ccccc12 | 21.7 | 56.2 | 5.99 | 18.3 | 44.7 | > 100 | 3.09 | 12.3 | > 100 | > 100 | 12.5 | 32.1 | 19.7 | 42.8 | 10.2 | 22.2 | 4.86 | 19.3 | 21.2 | > 100
7 | C#Cc1cccc(NC(=O)c2ccc(NC(=O)CCl)cc2)c1 | > 82.5 | > 82.5 | 55.6 | > 82.5 | 17.4 | > 82.5 | 14.9 | 34.8 | 7.37 | 32.4 | > 82.5 | > 82.5 | 12.7 | 25.7 | 12.6 | 24.7 | 14.9 | 38.4 | 15.7 | 34
8 | Cc1ccc(S(=O)(=O)Nc2ccc(-c3cc(-c4cccc(F)c4)c(C#N)c(N)n3)cc2)cc1 | 3.33 | 14.5 | 3.15 | 11.6 | 2.63 | > 100 | 2.75 | 9.62 | 2.26 | 30.8 | 2.17 | 6.32 | 1.63 | 3.12 | 1.56 | 3.02 | 2.48 | 7.96 | 2 | 4.4
9 | CCN=C(C#N)NCC |  | > 100 |  | > 100 |  | > 100 |  | > 100 |  | > 100 |  | > 100 |  | > 100 |  | > 100 |  | > 100 |  | 37.5
10 | Cc1ccccc1C1CC(c2ccccc2)=NO1 (stereo not given) |  | > 100 |  | > 100 |  | > 100 |  | > 100 |  | > 100 |  | > 100 |  | > 100 |  | > 100 |  | > 100 |  | > 100
11 | Cc1ccc(S(=O)(=O)N2CCc3ccc(O)c4c3C2Cc2ccc3c(c2-4)OCO3)cc1 (stereo not given) | 1.38 | 12 | 1.4 | > 100 | 0.455 | > 100 | 0.464 | 5.92 | 0.847 | > 27.6 | 4.34 | > 100 | 0.286 | 0.707 | 1.02 | 5.26 | 0.592 | 5.25 | 0.429 | > 42.9
12 | [CH3][Sn]([CH3])([CH3])[O][N+](=O)[O-] | 9.92 | > 10 | > 10 | > 10 | 2.63 | 7.39 | 1.45 | 2.77 | 2.19 | 6.9 | > 10 | > 10 | 5.06 | > 10 | 2.48 | 9.58 | 5.02 | > 10 | 2.06 | 4.8
13 | CCOC(=O)c1cccnc1C(OC(C)=O)OC(C)=O |  | > 100 |  | > 100 |  | > 100 |  | > 100 |  | > 100 |  | > 100 |  | > 100 |  | > 100 |  | > 100 |  | > 100
14 | COC(=O)/C(=N\NC(N)=O)C(C(=O)C=C(C)C)C(=O)C(=O)Nc1ccc(Cl)c(Cl)c1 (stereo not given) |  | > 100 |  | > 100 |  | > 100 |  | > 100 |  | > 100 |  | > 100 |  | > 100 |  | > 100 |  | > 100 |  | > 100
15 | COc1ccc2nc(NC(=O)C(=O)NNC(=O)c3ccncc3)sc2c1 |  | > 100 |  | > 100 |  | > 100 |  | > 100 |  | > 100 |  | > 100 |  | > 100 |  | > 100 |  | > 100 |  | > 100
